Here are results for 34 compounds from article PMC8920097, “Prediction of hERG inhibition of drug discovery compounds using biomimetic HPLC measurements” (ADMET & DMPK, 2021).

Where two headings read alike, the source gives them in different places.

Data set [1] can be described thus: CHI lipophilicity by gradient reversed-phase HPLC (Gemini NX-C-18). The note with it: for chromatographic logD: Gemini NX-C-18 reversed-phase HPLC column, pH 7.4; for chromatographic logP: reversed-phase HPLC, Gemini NX-C-18 column (50 x 3 mm, 5 µm). The method, then:
The Chromatographic Hydrophobicity Index (CHI) was measured using the compounds’ calibrated gradient retention times obtained from an Agilent 1100 HPLC fitted with a Gemini NX-C-18 column (Phenomenex Ltd Macclesfield, UK) with dimensions of 50 x 3 mm and 5 μm particle size. […] The mobile phase B was 100 % acetonitrile. […] An acetonitrile linear gradient was used from 0 to 100 %. […] The retention time values for a standard set of compounds listed in Table 1 were used to convert the drug retention times to CHI values.

Data set [2] in a line: Phospholipid binding at pH 7.4 on IAM PC.DD2 HPLC column. Format: physicochemical. Also on record: key to CHI IAM: approximates acetonitrile concentration (%) in mobile phase at elution. Here is the method: The phospholipid-binding was measured using an IAM PC.DD2 column with dimensions of 100 x 4.6 mm (Regis Technologies Inc., Morton Grove, IL, USA). The gradient retention times were measured using a 50 mM ammonium acetate mobile phase with the pH adjusted to 7.4. The mobile phase flow rate was 1.5 mL/min. […] The cycle time was 6 min, plus an additional 1 min equilibration time was applied while the injector prepared for the next injection. The gradient retention times were calibrated with the acetophenone homologues for which the CHI IAM values have been established using isocratic measurements. […] The CHI Index on the IAM column (CHI IAM) approximates the acetonitrile concentration in the mobile phase when the compound elutes. […] The CHI IAM values have been converted to log k IAM values derived from the CHI IAM values using equation 1. It represents the equivalent value derived from several isocratic measurements with extrapolated log retention factors to 100 % aqueous mobile phase. The log k IAM values can be converted to log K (IAM) values and show linear relationships with the octanol/water partition coefficients.

Data set [3] in a line: Charge character of the drugs at pH 7.4. Format: physicochemical.
For another data set, the system named is hERG channel. As to conditions: cited from earlier work.
In data set [4] the test system is alpha-1-acid-glycoprotein (AGP). Description: Protein binding on Chiralpak AGP HPLC column. As to conditions: pH 7.4, Chiralpak AGP. The method, then:
The measurement of the biomimetic properties of the available drugs was conducted in our laboratories. Generic gradient HPLC methods were used to determine the chromatographic hydrophobicity Index (CHI) using mobile phases at three different pH values. The protein binding of the compounds was measured using immobilised human serum albumin (HSA), and alpha-1-acid-glycoprotein (AGP) stationary phases. The phospholipid-binding was measured using the immobilised artificial membrane (IAM) stationary phase. The aim was to establish relationships between the cardiotoxicity potential and the biomimetic binding properties of the drugs and to evaluate their predictive performance.

The mark [5] stands for this setting: pH 7.4, derived from CHI IAM by equation 1.
Setting [6] is: literature values, mean where several reported, molar.

In data set [1], `CN(C)CCC=C1c2ccccc2CCc2ccccc21` [Amitriptyline] came in with a chromatographic logD of 2.65 and a chromatographic logP of 5.21. In data set [2] (setting [5]), the “log k IAM” value was 2.96. Besides, the Charge result in data set [3] is recorded as “Basic”.

With `CN1CCc2cccc3c2[C@H]1Cc1ccc(O)c(O)c1-3` [Apomorphine], in data set [1], the chromatographic logD was determined as 1.17 and the chromatographic logP stood at 2.66. Besides, the “log k IAM” value in data set [2] (setting [5]) was 2.24.

Consider `CC(C)NCC(O)COc1ccc(CC(N)=O)cc1` (stereo not drawn) [Atenolol], for which the “log k IAM” value in data set [2] (setting [5]) was determined as 1.14. Further, the Charge entry in data set [3] is listed as “Basic”.

Turning to `O=C(O)COCCN1CCN(C(c2ccccc2)c2ccc(Cl)cc2)CC1` (stereo not drawn) [Cetirizine], the “log k IAM” value in data set [2] (setting [5]) came to 2.29.

With `CCN(CC)CCCC(C)Nc1ccnc2cc(Cl)ccc12` (stereo not drawn) [Chloroquine], the “hERG pIC50” value in the data set on hERG channel (setting [6]) was 5.03.

Take `O=C(O)c1cn(C2CC2)c2cc(N3CCNCC3)c(F)cc2c1=O` [Ciprofloxacin]: the “log k IAM” value in data set [2] (setting [5]) worked out at 1.59. In addition, the Charge entry in data set [3] was “Zwitterionic”.

As for `CN(C)CCCC1(c2ccc(F)cc2)OCc2cc(C#N)ccc21` (stereo not drawn) [Citalopram], in data set [3], the Charge result was “Basic”. Besides, the “hERG pIC50” value with hERG channel was 5.27.

For `CN1CCC[C@@H]1CCO[C@](C)(c1ccccc1)c1ccc(Cl)cc1` [Clemastine], in data set [1], the chromatographic logD stood at 3.18 and the chromatographic logP was 3.18. For the same compound, the “log k AGP” value in data set [4] is given as 1.18. The “log k IAM” value in data set [2] (setting [5]) worked out at 3.19. For the same compound, in data set [3], the Charge result was “Basic”.

Consider `CNCCCN1c2ccccc2CCc2ccccc21` [Desipramine], for which the “log k AGP” value in data set [4] is reported as 0.94. In data set [3], the Charge entry is recorded as “Basic”. Besides, the “hERG pIC50” value in the data set with hERG channel (setting [6]) is 5.36.

In data set [1], `COc1ccc([C@@H]2Sc3ccccc3N(CCN(C)C)C(=O)[C@@H]2OC(C)=O)cc1` [Diltiazem] displayed a chromatographic logD of 2.76 and a chromatographic logP of 3.12. For the same compound, the “CHI IAM” value in data set [2] (pH 7.4) was 41.95. For the same compound, the “log k IAM” value in data set [2] (setting [5]) came to 2.35. Besides, in data set [3], the Charge result was “Basic”.

Regarding `CN(C)CCOC(c1ccccc1)c1ccccc1` [Diphenhydramine], in data set [2] (setting [5]), the “log k IAM” value is 2.06. Further, the Charge result in data set [3] is listed as “Basic”.

As for `O=C(O[C@@H]1C[C@@H]2C[C@H]3C[C@H](C1)N2CC3=O)c1c[nH]c2ccccc12` [Dolasetron], in data set [1], the chromatographic logD amounted to 1.46 and the chromatographic logP came out at 1.46. Besides, in data set [2] (setting [5]), the “log k IAM” value was 1.95. Moreover, the Charge result in data set [3] is “Weak Base”.

In data set [1], `CC(C)(C)c1ccc(C(=O)CCCN2CCC(OC(c3ccccc3)c3ccccc3)CC2)cc1` [Ebastine] had a chromatographic logD of 4.96 and a chromatographic logP of 6.54. Besides, in data set [4], the “log k AGP” value was 1.34. In data set [2] (setting [5]), the “log k IAM” value is reported as 3.12. Also, the Charge result in data set [3] was “Basic”.

In data set [1], `CC[C@H]1OC(=O)[C@H](C)[C@@H](O[C@H]2C[C@@](C)(OC)[C@@H](O)[C@H](C)O2)[C@H](C)[C@@H](O[C@@H]2O[C@H](C)C[C@H](N(C)C)[C@H]2O)[C@](C)(O)C[C@@H](C)C(=O)[C@H](C)[C@@H](O)[C@]1(C)O` [Erythromycin] gave a chromatographic logD of 1.31 and a chromatographic logP of 2.6. In addition, the “CHI IAM” value in data set [2] (pH 7.4) came out at 38.79. Also, in data set [2] (setting [5]), the “log k IAM” value came out at 2.20. In data set [3], the Charge result is recorded as “Basic”.

Regarding `CNCCC(Oc1ccc(C(F)(F)F)cc1)c1ccccc1` (stereo not drawn) [Fluoxetine], the “hERG pIC50” value in the data set with hERG channel (setting [6]) was 5.73.

On to `COc1ccc(Cl)cc1C(=O)NCCc1ccc(S(=O)(=O)NC(=O)NC2CCCCC2)cc1` [Glibenclamide], for which, in data set [1], the chromatographic logD was 2.07 and the chromatographic logP was determined as 3.17. In data set [2] (setting [5]), the “log k IAM” value is listed as 1.93. For the same compound, the Charge result in data set [3] is given as “Acidic”.

In data set [1], `CCC1=C(C)CN(C(=O)NCCc2ccc(S(=O)(=O)NC(=O)N[C@H]3CC[C@H](C)CC3)cc2)C1=O` [Glimepiride] displayed a chromatographic logD of 2.42 and a chromatographic logP of 3.25. In addition, the “log k AGP” value in data set [4] came out at 0.40. For the same compound, the “CHI IAM” value in data set [2] (pH 7.4) is 30.76. In addition, the “log k IAM” value in data set [2] (setting [5]) was found to be 1.83. Moreover, the “hERG pIC50” value in the data set on hERG channel is 4.13.

For the compound `CN(C)CCCN1c2ccccc2CCc2ccccc21` [Imipramine], the “log k AGP” value in data set [4] stood at 0.96.

`CC(=O)N1CCN(c2ccc(OCC3COC(Cn4ccnc4)(c4ccc(Cl)cc4Cl)O3)cc2)CC1` (stereo not drawn) [Ketoconazole]: the “CHI IAM” value in data set [2] (pH 7.4) is listed as 37.86. In addition, the “log k IAM” value in data set [2] (setting [5]) was 2.16.

As to `CCN(CC)CC(=O)Nc1c(C)cccc1C` [Lidocaine], the “log k IAM” value in data set [2] (setting [5]) is recorded as 1.91. Besides, the Charge entry in data set [3] is “Weak Base”.

Regarding `CCn1cc(C(=O)O)c(=O)c2cc(F)c(N3CCNC(C)C3)c(F)c21` (stereo not drawn) [Lomefloxacin], in data set [1], the chromatographic logD is -0.14 and the chromatographic logP is -0.14. In addition, the “CHI IAM” value in data set [2] (pH 7.4) was determined as 37.89. Besides, the “log k IAM” value in data set [2] (setting [5]) was 2.16.

Regarding `CCOC(=O)N1CCC(=C2c3ccc(Cl)cc3CCc3cccnc32)CC1` [Loratadine], in data set [2] (setting [5]), the “log k IAM” value turned out to be 2.46. Further, the Charge entry in data set [3] is recorded as “Weak Base”.

`CC[C@H](C)C(=O)O[C@H]1C[C@@H](C)C=C2C=C[C@H](C)[C@H](CC[C@@H]3C[C@@H](O)CC(=O)O3)[C@H]21` [Lovastatin] returned a chromatographic logD in data set [1] of 4.09. Also, the “CHI IAM” value in data set [2] (pH 7.4) worked out at 44.38. Further, the “log k IAM” value in data set [2] (setting [5]) was found to be 2.46.

Take `Cc1cc2c(s1)Nc1ccccc1N=C2N1CCN(C)CC1` [Olanzapine]: the “log k IAM” value in data set [2] (pH 7.4) turned out to be 2.71. In data set [3], the Charge result is reported as “Weak Base”.

In data set [1], `CCN(CC)CCNC(=O)c1ccc(N)cc1` [Procainamide] showed a chromatographic logD of -0.59 and a chromatographic logP of 0.95. For the same compound, the “log k IAM” value in data set [2] (setting [5]) came to 1.29. For the same compound, the Charge entry in data set [3] is given as “Basic”.

In data set [1], `OCCOCCN1CCN(C2=Nc3ccccc3Sc3ccccc32)CC1` [Quetiapine] showed a chromatographic logD of 2.55 and a chromatographic logP of 2.69.

`Cc1nc2n(c(=O)c1CCN1CCC(c3noc4cc(F)ccc34)CC1)CCCC2` [Risperidone]: the “log k IAM” value in data set [2] (setting [5]) was 2.09. Further, the Charge entry in data set [3] is listed as “Weak Base”.

In data set [1], `CC(C)c1nc(CN(C)C(=O)N[C@H](C(=O)N[C@@H](Cc2ccccc2)C[C@H](O)[C@H](Cc2ccccc2)NC(=O)OCc2cncs2)C(C)C)cs1` [Ritonavir] returned a chromatographic logD of 3.25 and a chromatographic logP of 3.41. Besides, the “log k AGP” value in data set [4] stood at 0.64. For the same compound, in data set [2] (pH 7.4), the “CHI IAM” value was 38.64. Also, the “log k IAM” value in data set [2] (setting [5]) is listed as 2.2. In addition, in data set [3], the Charge result is reported as “Neutral”.

Turning to `CCCc1nn(C)c2c(=O)[nH]c(-c3cc(S(=O)(=O)N4CCN(C)CC4)ccc3OCC)nc12` [Sildenafil], in data set [1], the chromatographic logD was found to be 2.59 and the chromatographic logP amounted to 2.62. Besides, in data set [2] (pH 7.4), the “CHI IAM” value was found to be 35.00. For the same compound, the “log k IAM” value in data set [2] (setting [5]) is 2.03. For the same compound, the Charge entry in data set [3] is recorded as “Weak Base”.

As to `Cc1cc(NS(=O)(=O)c2ccc(N)cc2)no1` [Sulfamethoxazole], the “log k IAM” value in data set [2] (setting [5]) was 1.01.

In data set [1], `CSc1ccc2c(c1)N(CCC1CCCCN1C)c1ccccc1S2` (stereo not drawn) [Thioridazine] returned a chromatographic logD of 3.02 and a chromatographic logP of 5.46. Further, in data set [2] (setting [5]), the “log k IAM” value was determined as 3.65.

In the case of `Cc1ccc(O)c([C@H](CCN(C(C)C)C(C)C)c2ccccc2)c1` [Tolterodine], in data set [1], the chromatographic logD was determined as 2 and the chromatographic logP stood at 4.95. In addition, in data set [2] (setting [5]), the “log k IAM” value worked out at 2.83.

On to Nicotine, for which, in the data set with hERG channel, the “hERG pIC50” value was 3.61.

As to Prazosin, in the data set on hERG channel (setting [6]), the “hERG pIC50” value is 5.22.

In general, chromatographic logD refers to a lipophilicity value derived from retention on a column. By chromatographic logP is commonly meant a lipophilicity value derived from retention on a column.
